Patent US11718631B2, “Sulphonamides and compositions thereof for treating conditions associated with NLRP activity” (Novartis AG, priority 2017, dated 2023)
pIC50: −log10 of the molar value. Where two headings read alike, the source gives them in different places.

Molecular target: T1, NLRP3 (Homo sapiens, UniProt Q96P20)
T1 construct: IL-1β Production in PMA-Differentiated THP-1 Cells Stimulated with Gramicidin; host or cells: THP-1 cells, PMA-differentiated
Test: IL-1β production in PMA-differentiated THP-1 cells stimulated with gramicidin (hTHP-1 assay)
Assay type: cell-based
Details: hTHP-1 assay containing 2% fetal bovine serum, read-out: NLRP3 Antagonist, human THP1 NLRP3, IL-1b, Normalized: GeoMean IC50
Description: IL-1β Production in PMA-Differentiated THP-1 Cells Stimulated with Gramicidin.
THP-1 cells were purchased from the American Type Culture Collection and sub-cultured according to instructions from the supplier. […] Prior to the experiment THP-1 were treated with PMA (Phorbol 12-myristate 13-acetate) (20 ng/ml) for 16-18 hours. On the day of the experiment the media was removed and adherent cells were detached with trypsin for 5 minutes. […] A vehicle only control was run concurrently with each experiment. Final DMSO concentration was 0.38%.
THP-1 cells were purchased from the American Type Culture Collection and sub-cultured according to instructions from the supplier. […] Prior to the experiment THP-1 were treated with PMA (Phorbol 12-myristate 13-acetate) (20 ng/ml) for 16-18 hours. Compounds were dissolved in dimethyl sulfoxide (DMSO) to generate a 30 mM stock. On the day of the experiment the media was removed and adherent cells were detached with trypsin for 5 minutes. […] Final DMSO concentration was at 0.37%. Cells were incubated with compounds for 1 hour and then stimulated with gramicidin (5 μM) (Enzo) for 2 hours. Plates were then centrifuged at 340 g for 5 min. Cell free supernatant (40 μL) was collected using a 96-channel PlateMaster (Gilson) and the production of IL-1p was evaluated by HTRF (cisbio).
IL-1p Production in PMA-Differentiated THP-1 Cells Stimulated with Gramicidin.
THP-1 cells were purchased from the American Type Culture Collection and sub-cultured according to instructions from the supplier. […] Prior to the experiment, compounds were dissolved in dimethyl sulfoxide (DMSO) to generate a 30 mM stock. […] DMSO was backfilled in the plate to achieve a final DMSO assay concentration of 0.37%. The plate was then sealed and stored at room temperature until required.
THP-1 cells were treated with PMA (Phorbol 12-myristate 13-acetate) (20 ng/ml) for 16-18 hours. On the day of the experiment the media was removed and adherent cells were detached with trypsin for 5 minutes. […] The plates were incubated for 18 h at 4° C. and read using the preset HTRF program (donor emission at 620 nm, acceptor emission at 668 nm) of the SpectraMax i3x spectrophotometer (Molecular Devices, software SoftMax 6).

[1] = average IC50, given as numeric bound

T1 sequence (Q96P20 whole entry): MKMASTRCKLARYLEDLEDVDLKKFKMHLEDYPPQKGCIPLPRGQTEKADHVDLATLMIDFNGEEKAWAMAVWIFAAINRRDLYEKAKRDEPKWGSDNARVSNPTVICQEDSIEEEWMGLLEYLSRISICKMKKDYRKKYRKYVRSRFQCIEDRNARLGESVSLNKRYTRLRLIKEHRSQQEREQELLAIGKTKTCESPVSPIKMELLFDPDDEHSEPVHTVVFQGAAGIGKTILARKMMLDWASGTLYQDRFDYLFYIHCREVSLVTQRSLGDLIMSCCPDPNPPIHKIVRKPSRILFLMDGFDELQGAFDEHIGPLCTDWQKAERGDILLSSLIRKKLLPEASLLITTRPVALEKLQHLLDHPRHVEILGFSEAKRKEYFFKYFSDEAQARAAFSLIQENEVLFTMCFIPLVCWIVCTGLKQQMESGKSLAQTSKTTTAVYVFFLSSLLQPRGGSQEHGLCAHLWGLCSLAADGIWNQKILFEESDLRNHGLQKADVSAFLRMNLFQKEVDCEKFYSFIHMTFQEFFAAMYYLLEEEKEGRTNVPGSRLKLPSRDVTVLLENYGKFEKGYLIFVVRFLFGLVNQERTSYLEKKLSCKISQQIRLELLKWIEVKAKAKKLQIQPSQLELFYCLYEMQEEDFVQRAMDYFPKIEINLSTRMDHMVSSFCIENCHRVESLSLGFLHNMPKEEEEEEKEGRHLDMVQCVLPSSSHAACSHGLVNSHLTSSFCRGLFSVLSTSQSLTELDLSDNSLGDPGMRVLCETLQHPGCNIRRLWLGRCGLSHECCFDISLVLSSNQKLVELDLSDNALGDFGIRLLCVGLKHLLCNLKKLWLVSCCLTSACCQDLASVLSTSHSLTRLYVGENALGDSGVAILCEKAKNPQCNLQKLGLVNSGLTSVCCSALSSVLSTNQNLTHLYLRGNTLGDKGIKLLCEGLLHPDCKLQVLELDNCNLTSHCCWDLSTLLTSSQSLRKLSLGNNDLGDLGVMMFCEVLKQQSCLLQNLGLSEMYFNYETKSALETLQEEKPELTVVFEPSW

| SMILES | pIC50 (average IC50, class symbols) | pIC50 [1] |
| --- | --- | --- |
| CC(C)c1cc(C2CCCc3ccccc32)cc(C(C)C)c1CC(=O)NS(=O)(=O)c1ccc(CN(C)C)cc1 (stereo not drawn) [Compound 321, 2-[2,6-bis(propan-2-yl)-4-(1,2,3,4-tetrahydronaphthalen-1-yl)phenyl]-N-{4-[(dimethylamino)methyl]benzene-sulfonyl}acetamide] | 5.30 to 6.00 |  |
| CC(C)c1cc(C2CCc3ccccc32)cc(C(C)C)c1CC(=O)NS(=O)(=O)c1ccc(CN(C)C)cc1 (stereo not drawn) [Compound 322, 2-[4-(2,3-dihydro-1H-inden-1-yl)-2,6-bis(propan-2-yl)phenyl]-N-{4-[(dimethylamino)methyl]benzene-sulfonyl}acetamide] | 6.00 to 6.70 |  |
| CC(C)c1cc(C2Cc3ccccc3C2)cc(C(C)C)c1CC(=O)NS(=O)(=O)c1ccc(CN(C)C)cc1 [Compound 323, 2-[4-(2,3-dihydro-1H-inden-2-yl)-2,6-bis(propan-2-yl)phenyl]-N-{4-[(dimethylamino)methyl]benzene-sulfonyl}acetamide] | 5.30 to 6.00 |  |
| CC(C)c1cc(C#CC2CCCCC2)cc(C(C)C)c1CC(=O)NS(=O)(=O)c1ccc(CN(C)C)cc1 [Compound 324, 2-[4-(2-cyclohexylethynyl)-2,6-bis(propan-2-yl)phenyl]-N-{4-[(dimethylamino)methyl]benzene-sulfonyl}acetamide] | 6.70 to 7.40 |  |
| CC(C)c1cc(CCC2CCCC2)cc(C(C)C)c1CC(=O)NS(=O)(=O)c1ccc(CN(C)C)cc1 [Compound 325, 2-[4-(2-cyclopentylethyl)-2,6-bis(propan-2-yl)phenyl]-N-{4-[(dimethylamino)methyl]benzene-sulfonyl}acetamide] | 5.30 to 6.00 |  |
| CC(C)c1cc(C2CCCC2)cc(C(C)C)c1CC(=O)NS(=O)(=O)c1ccc(CN(C)C)cc1 [Compound 355, 2-[4-cyclopentyl-2,6-bis(propan-2-yl)phenyl]-N-{4-[(dimethylamino)methyl]benzene-sulfonyl}acetamide] | 4.52 to 5.30 |  |
| CC(C)c1cc(C#CC2CCCC2)cc(C(C)C)c1CC(=O)NS(=O)(=O)c1ccc(CN(C)C)cc1 [Compound 370, 2-[4-(2-cyclopentylethynyl)-2,6-bis(propan-2-yl)phenyl]-N-{4-[(dimethylamino)methyl]benzene-sulfonyl}acetamide] | 6.70 to 7.40 |  |
| CC(C)c1cc(C(O)c2ccccc2)cc(C(C)C)c1CC(=O)NS(=O)(=O)c1ccc(CN(C)C)cc1 (stereo not drawn) [Compound 372, N-{4-[(dimethylamino)methyl]benzenesulfonyl}-2-(4-[hydroxy(phenyl)methyl]-2,6-bis(propan-2-yl)phenyl)acetamide] |  | < 4.52 |
| CC(C)c1cc(C(=O)c2ccccc2)cc(C(C)C)c1CC(=O)NS(=O)(=O)c1ccc(CN(C)C)cc1 [Compound 373, 2-[4-benzoyl-2,6-bis(propan-2-yl)phenyl]-N-{4-[(dimethylamino)methyl]benzenesulfonyl}acetamide] |  | < 4.52 |
| CC(C)c1cc(CC2=CCCCC2)cc(C(C)C)c1CC(=O)NS(=O)(=O)c1ccc(CN(C)C)cc1 [Compound 377, 2-[4-(cyclohex-1-en-1-ylmethyl)-2,6-bis(propan-2-yl)phenyl]-N-{4-[(dimethylamino)methyl]benzenesulfonyl}acetamide] | 5.30 to 6.00 |  |
| CC(C)c1cc(CC2CCCCC2)cc(C(C)C)c1CC(=O)NS(=O)(=O)c1ccc(CN(C)C)cc1 [Compound 378, 2-[4-(cyclohexylmethyl)-2,6-bis(propan-2-yl)phenyl]-N-{4-[(dimethylamino)methyl]benzenesulfonyl}acetamide] | 4.52 to 5.30 |  |
| C#Cc1cc(C(C)C)c(CC(=O)NS(=O)(=O)c2ccc(C(C)N(C)C)cc2)c(C(C)C)c1 (stereo not drawn) [Compound 379] | 5.30 to 6.00 |  |
